Experimental data published in patent publication US9073905B2, “Rock inhibitors” (Amakem NV, priority 2011, dated 2015).
Entries after “also recorded” stand apart in the source; their conditions may differ.

Key:
[1] = Stability assay in human plasma; assay type: in vitro ADME; conditions: 1 μM compound, LC-MS/MS, read-out: t½ human plasma
Method: (§1) Compounds are incubated at a concentration of 1 μM in rat (mice or rabbit) or human plasma. Samples are taken at fixed time points and the remnant of compound is determined by LC-MS/MS after protein precipitation. Half life is expressed in minutes.

ROCK2 = ROCK2 (Homo sapiens, UniProt O75116); assay: Kinase inhibition (ROCKI & ROCKII), radiometric 33P-ATP biochemical assay
Method: On-target activity against ROCK was measured in a biochemical assay, using the following reagents: Base Reaction buffer; 20 mM Hepes (pH 7.5), 10 mM MgCl2, 1 mM EGTA, 0.02% Brij35, 0.02 mg/ml BSA, 0.1 mM Na3VO4, 2 mM DTT, 1% DMSO. Required cofactors are added individually to each kinase reaction. The reaction procedure first involved the preparation of a peptide substrate in a freshly prepared reaction buffer. Required cofactors were then added to the substrate solution. ROCK (1 nM final concentration) was then delivered to the substrate solution. After gentle mix, DMSO solutions of the test compounds were added to the enzyme. Substrate mix ^33P-ATP (specific activity 0.01 μCi/μl final) was then delivered into the reaction mixture to initiate the reaction. The kinase reaction was incubated for 120 min. at room temperature. Reactions were then spotted onto P81 ion exchange paper (Whatman #3698-915). Filters were washed extensively in 0.1% Phosphoric acid. A radiometric count was then performed and IC50 values were subsequently determined.
The IC50 values obtained (in accordance with the protocol set forth above) are represented as follows: “+++” means IC50 below 0.1 μM, “++” means IC50 between 0.1 μM and 1 μM; “+” means IC50 between 1 and 10 μM and “ND” means “not determined yet”.

[2] = Stability assay in rabbit aqueous humor; assay type: in vitro ADME; conditions: for half-life at 1 μM: rabbit, read-out: t½ AH
Method: Compounds are incubated at a concentration of 1 μM in rabbit aqueous humor (AH). Samples are taken at fixed time points and the remnant of compound is determined by LC-MS/MS after protein precipitation. Half life is expressed in minutes.

[3] = system: MLC-T18/S19 phosphorylation; assay: Myosin light chain phosphorylation assay (ELISA) in A7r5 cells; assay type: cell-based, Rat; conditions: for EC50: MLC-T18/S19 phosphorylation, A7r5 cells, serum-free medium; for functional activity in the MLC phosphorylation assay (in words): FIG. 1
Method: Rat smooth muscle cell line A7r5 is used. The endogenous expression of ROCK esults in a constitutive phosphorylation of the regulatory myosin light chain at T18/S19. A7r5 cells were plated in DMEM supplemented with 10% FCS in multiwall cell culture plates. After serum starvation overnight, cells were incubated with compounds in serum-free medium.
Quantification of MLC-T18/S19 phosphorylation is assesses in 96 well-plates via ELISA using a phspho-MLC-T18/S19 specific antibody and a secondary detection antibody. Raw data were converted into percent substrate phosphorylation relative to high controls, which were set to 100%.
EC50 values were determined using GraphPad Prism 5.01 software using a nonlinear regression curve fit with variable hill slope.
The EC50 values obtained (in accordance with the protocols set forth above) are represented as follows: “+++” means EC50 below 0.3 μM, “++” means EC50 between 0.3 μM and 1 μM; “+” means EC50 between 1 and 10 μM and “−” means EC50>10 μM.

[4] = Stability in plasma, species not stated; assay type: in vitro ADME; conditions: for half-life at 1 μM: read-out: t½ Plasma
Method: as §1

[5] = Stability towards drug metabolizing enzymes in lung S9; assay type: in vitro ADME, human; conditions: comparison table; for half-life at 1 μM: human, lung S9 (from smokers), read-out: t½ lung S9
Method: A 1 μM solution of the ROCK inhibitors is incubated with a reaction mixture containing lung S9 (from smokers) as well as the cofactors NADPH, UDPGA, PAPS and GSH. Samples are collected at 0, 15, 30 and 60 minutes post incubation. Negative control samples incubated with ROCK inhibitors and S9 fraction in the absence of cofactors are run in parallel. By using LC-MS/MS analysis, the percent of ROCK compounds remaining at each time point, the metabolic half-life of the ROCK compounds (expressed in minutes) and the metabolic half-life of the control compounds are determined.

[6] = ROCK 1 nM, 120 min at room temperature
[7] = aqueous humor, 1 μM in rabbit aqueous humor
[8] = comparison table, plasma species not given
[9] = aqueous humor, comparison table, aqueous humor

ROCK2, sequence (O75116 whole entry, species assumed): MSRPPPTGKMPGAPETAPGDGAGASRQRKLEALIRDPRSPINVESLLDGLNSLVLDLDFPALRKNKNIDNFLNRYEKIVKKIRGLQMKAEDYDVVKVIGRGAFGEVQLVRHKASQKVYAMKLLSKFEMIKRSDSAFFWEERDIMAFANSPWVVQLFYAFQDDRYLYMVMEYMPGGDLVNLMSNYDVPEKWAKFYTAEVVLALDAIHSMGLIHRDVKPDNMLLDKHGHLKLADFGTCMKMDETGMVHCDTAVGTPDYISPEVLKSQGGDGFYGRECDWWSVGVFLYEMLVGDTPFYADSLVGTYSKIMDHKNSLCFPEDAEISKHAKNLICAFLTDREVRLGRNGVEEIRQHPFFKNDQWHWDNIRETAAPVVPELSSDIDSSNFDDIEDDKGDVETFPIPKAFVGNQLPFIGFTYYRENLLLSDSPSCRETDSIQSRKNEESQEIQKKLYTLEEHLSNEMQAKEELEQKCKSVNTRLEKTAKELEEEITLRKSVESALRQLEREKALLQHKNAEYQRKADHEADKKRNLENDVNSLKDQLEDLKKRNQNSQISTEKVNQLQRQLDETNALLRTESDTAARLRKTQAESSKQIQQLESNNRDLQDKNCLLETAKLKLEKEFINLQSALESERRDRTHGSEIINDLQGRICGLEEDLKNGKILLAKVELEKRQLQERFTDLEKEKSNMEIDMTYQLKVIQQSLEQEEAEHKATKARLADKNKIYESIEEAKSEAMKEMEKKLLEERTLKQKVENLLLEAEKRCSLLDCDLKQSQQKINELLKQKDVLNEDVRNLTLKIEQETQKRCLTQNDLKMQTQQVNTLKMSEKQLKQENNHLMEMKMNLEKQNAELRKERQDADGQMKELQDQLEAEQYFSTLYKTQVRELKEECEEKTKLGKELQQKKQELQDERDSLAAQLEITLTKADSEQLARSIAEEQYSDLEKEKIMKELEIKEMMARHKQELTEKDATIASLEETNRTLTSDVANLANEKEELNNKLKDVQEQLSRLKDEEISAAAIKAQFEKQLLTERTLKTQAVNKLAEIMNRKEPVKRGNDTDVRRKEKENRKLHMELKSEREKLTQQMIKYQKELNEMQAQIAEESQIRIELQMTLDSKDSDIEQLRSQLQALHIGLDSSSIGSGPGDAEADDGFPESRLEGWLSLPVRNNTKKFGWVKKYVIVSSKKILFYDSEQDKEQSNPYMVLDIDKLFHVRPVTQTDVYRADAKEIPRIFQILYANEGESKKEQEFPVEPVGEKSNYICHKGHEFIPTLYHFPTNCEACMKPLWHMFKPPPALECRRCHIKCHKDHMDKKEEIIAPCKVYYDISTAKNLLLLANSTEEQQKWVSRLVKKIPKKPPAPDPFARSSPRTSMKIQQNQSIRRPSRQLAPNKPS

Row | Structure (SMILES) | half-life at 1 μM [1] [min] | IC50 (ROCK2; [6]) [nM] | half-life at 1 μM [2, 7] [min] | further results
1 | COC(=O)Cc1ccc(NC(=O)c2cccc(CN3CCC(Nc4cccc5cnccc45)C3)c2)cc1 (centres unmarked) [Compound 36] | 24 | < 100 | > 120 | –
2 | COC(=O)c1cccc(NC(=O)c2cccc(CN3CCCC(Nc4cccc5cnccc45)C3)c2)c1 (centres unmarked) [Compound 30] | – | < 100 | > 120 | –
3 | O=C(OCCO)c1cccc(CN2CCCC(Nc3cccc4cnccc34)C2)c1 (centres unmarked) [Compound 5] | – | < 100 | – | –
4 | O=C(OCC1CC1)c1cccc(CN2CCCC(Nc3cccc4cnccc34)C2)c1 (centres unmarked) [Compound 1] | 49 | < 100 | – | –
5 | COC(=O)Cc1cccc(NC(=O)c2cccc(CN3CCC(Nc4cccc5cnccc45)C3)c2)c1 (centres unmarked) [Compound 33] | < 4 | < 100 | 59 | –
6 | COC(=O)Cc1ccc(NC(=O)c2cccc(CN3CCCC(Nc4ccc5[nH]ncc5c4)C3)c2)cc1 (centres unmarked) [Compound 40] | 40 | – | > 120 | –
7 | O=C(OCCO)c1cccc(CN2CCCC(Nc3ccc4[nH]ncc4c3)C2)c1 (centres unmarked) [Compound 19] | – | < 100 | – | EC50 ([3]; Rattus norvegicus): 300 to 1000 nM
8 | O=C(Oc1ccccc1)c1cccc(CN2CCCC(Nc3ccc4[nH]ncc4c3)C2)c1 (centres unmarked) [Compound 10] | < 5 | < 100 | – | –
9 | COC(=O)c1cccc(CN2CCCC(Nc3ccc4[nH]ncc4c3)C2)c1 (centres unmarked) [Compound 7] | – | < 100 | – | EC50 ([3]; Rattus norvegicus): 1000 to 10000 nM
10 | COC(=O)Cc1cccc(CN2CCCC(Nc3ccc4[nH]ncc4c3)C2)c1 (centres unmarked) [Compound 11] | – | < 100 | – | –
11 | COC(=O)Cc1ccc(NC(=O)c2cccc(CN3CCCC(Nc4cccc5cnccc45)C3)c2)cc1 (centres unmarked) [Compound 34] | – | < 100 | > 120 | –
12 | O=C(O)c1cccc(CN2CCCC(Nc3ccc4[nH]ncc4c3)C2)c1 (centres unmarked) [Met1, 3-({3-[(1H-indazol-5-yl)amino]piperidin-1-yl}methyl)benzoic acid] | – | – | – | functional activity in the MLC phosphorylation assay (in words) [3]: functionally inactive compound; also recorded: devoid of functional activity; EC50 ([3]; Rattus norvegicus): > 10000 nM
13 | COC(=O)c1cccc(NC(=O)Cc2cccc(CN3CCCC(Nc4ccc5[nH]ncc5c4)C3)c2)c1 (centres unmarked) [Compound 41] | 10 | < 100 | > 120 | –
14 | O=C(OCC1CC1)c1cccc(CN2CCCC(Nc3ccc4[nH]ncc4c3)C2)c1 (centres unmarked) [Compound 17] | 25 | < 100 | > 120 | half life in plasma (in words) ([4]; point C.2.1): short half life; inhibitory activity against ROCK (in words) (ROCK2; summary of point C1.1): strong inhibitory activity; half-life in aqueous humor compared with plasma (in words) ([2]; text summary of point C.2.3): significantly longer half-life in aqueous humor than in plasma; functional activity in the MLC phosphorylation assay (in words) [3]: display functional activity; EC50 ([3]; Rattus norvegicus): 300 to 1000 nM
15 | COCCOC(=O)Cc1cccc(CN2CCCC(Nc3ccc4[nH]ncc4c3)C2)c1 (centres unmarked) [Compound 12] | – | < 100 | – | –
16 | CCSC(=O)c1cccc(CN2CCCC(Nc3ccc4[nH]ncc4c3)C2)c1 (centres unmarked) [Compound 16] | – | < 100 | – | –
17 | COC(=O)c1ccc(NC(=O)c2cccc(CN3CCCC(Nc4ccc5[nH]ncc5c4)C3)c2)cc1 (centres unmarked) [Compound 39] | – | – | > 120 | –
18 | CS(=O)(=O)Nc1cccc(CN2CCCC(Nc3ccc4[nH]ncc4c3)C2)c1 (centres unmarked) [Compound 1.091, reference compound] | – | – | – | half-life at 1 μM [4, 8]: > 120 min; degradation in the tested media, including plasma (in words) ([4]; plasma, aqueous humor, lung S9): not degraded at a significant rate; half-life at 1 μM [5]: > 240 min; IC50 (ROCK2; comparison table): 2.4 nM; half-life at 1 μM [2, 9]: > 120 min; IC50 ([3]; Rattus norvegicus, A7R5, comparison table, MLC phosphorylation, read-out: IC50 MLC-PP): 110 nM
19 | CCCOC(=O)c1cccc(CN2CCCC(Nc3ccc4[nH]ncc4c3)C2)c1 (centres unmarked) [Compound 9] | – | < 100 | – | EC50 ([3]; Rattus norvegicus): 300 to 1000 nM
20 | O=C(OCc1ccccc1)c1cccc(CN2CCCC(Nc3cccc4cnccc34)C2)c1 (centres unmarked) [Compound 2] | 53 | 100 to 1000 | – | –
21 | O=C(Oc1ccccc1)c1cccc(CN2CCCC(Nc3cccc4cnccc34)C2)c1 (centres unmarked) [Compound 3] | 19 | 100 to 1000 | – | –

Row | Structure (SMILES) | half-life at 1 μM [1] [min] | IC50 (ROCK2; [6]) [nM] | half-life at 1 μM [2, 7] [min] | further results
22 | COC(=O)c1ccc(CN2CCCC(Nc3ccc4[nH]ncc4c3)C2)[nH]1 (centres unmarked) [Compound 24] | – | < 100 | – | –
23 | O=C1OCC(CCNC(=O)c2cccc(CN3CCCC(Nc4ccc5[nH]ncc5c4)C3)c2)O1 (centres unmarked) [Compound 29] | < 5 | < 100 | > 120 | –
24 | COC(=O)Cc1cccc(NC(=O)c2cccc(CN3CCCC(Nc4ccc5[nH]ncc5c4)C3)c2)c1 (centres unmarked) [Compound 38] | – | – | > 120 | –
25 | COC(=O)c1ccc(CN2CCCC(Nc3ccc4[nH]ncc4c3)C2)s1 (centres unmarked) [Compound 23] | – | < 100 | – | –
26 | COC(=O)c1cccc(CN2CCC(Nc3cccc4cnccc34)C2)c1 (centres unmarked) [Compound 20] | – | < 100 | – | –
27 | CCCOC(=O)Cc1cccc(CN2CCCC(Nc3ccc4[nH]ncc4c3)C2)c1 (centres unmarked) [Compound 4] | – | < 100 | – | –
28 | COC(=O)Cc1cccc(NC(=O)c2cccc(CN3CCCC(Nc4cccc5cnccc45)C3)c2)c1 (centres unmarked) [Compound 31] | < 5 | – | > 120 | –
29 | O=C(OCc1ccccc1)c1cccc(CN2CCCC(Nc3ccc4[nH]ncc4c3)C2)c1 (centres unmarked) [Compound 18] | 26 | < 100 | – | –
30 | COC(=O)Cc1ccc(NC(=O)Cc2cccc(CN3CCCC(Nc4ccc5[nH]ncc5c4)C3)c2)cc1 (centres unmarked) [Compound 44] | < 5 | < 100 | – | –
31 | COC(=O)c1cccc(NC(=O)c2cccc(CN3CCCC(Nc4ccc5[nH]ncc5c4)C3)c2)c1 (centres unmarked) [Compound 37] | – | < 100 | > 120 | –
32 | CCOC(=O)c1cccc(CN2CCC(Nc3cccc4cnccc34)C2)c1 (centres unmarked) [Compound 21] | – | 100 to 1000 | – | –
33 | CCOC(=O)COc1cccc(CN2CCCC(Nc3ccc4[nH]ncc4c3)C2)c1 (racemic) [Compound 1.060, reference compound] | – | – | – | t½ Plasma [4, 8]: <5 min; half-life at 1 μM [4, 8]: < 5 min; t½ lung S9 [5]: <5 min; half-life at 1 μM [5]: < 5 min; IC50 (ROCK2; comparison table): 7 nM; t½ AH ([2]; comparison table, aqueous humor): <5 min; half-life at 1 μM [2, 9]: < 5 min
34 | COC(=O)c1ccc(NC(=O)c2cccc(CN3CCCC(Nc4cccc5cnccc45)C3)c2)cc1 (centres unmarked) [Compound 25] | – | – | > 120 | –
35 | COC(=O)c1ccc(NC(=O)c2cccc(CN3CCC(Nc4cccc5cnccc45)C3)c2)cc1 (centres unmarked) [Compound 35] | – | < 100 | > 120 | –
36 | CCCOC(=O)c1cccc(CN2CCCC(Nc3cccc4cnccc34)C2)c1 (centres unmarked) [Compound 13] | – | 100 to 1000 | – | –
37 | O=C(OCC1CCCO1)c1cccc(CN2CCCC(Nc3cccc4cnccc34)C2)c1 (centres unmarked) [Compound 15] | 5 | < 100 | – | EC50 ([3]; Rattus norvegicus): 1000 to 10000 nM
38 | COC(=O)c1cccc(CN2CCCC(Nc3cccc4cnccc34)C2)c1 (centres unmarked) [Compound 8] | – | 100 to 1000 | – | –
39 | COC(=O)Cc1cccc(NC(=O)Cc2cccc(CN3CCCC(Nc4ccc5[nH]ncc5c4)C3)c2)c1 (centres unmarked) [Compound 42] | < 5 | < 100 | – | –
40 | O=C1OCC(CCNC(=O)c2cccc(CN3CCCC(Nc4cccc5cnccc45)C3)c2)O1 (centres unmarked) [Compound 27] | 4 | < 100 | 111 | –
41 | CCSC(=O)c1cccc(CN2CCCC(Nc3cccc4cnccc34)C2)c1 (centres unmarked) [Compound 6] | – | 100 to 1000 | – | –
42 | COC(=O)c1ccc(NC(=O)Cc2cccc(CN3CCCC(Nc4ccc5[nH]ncc5c4)C3)c2)cc1 (centres unmarked) [Compound 43] | – | – | > 120 | –
